Structures can show the parent of a compound that is named as a salt.
Columns and labels:
[1] = system: Long-Evans male rats; test: IP administration of compounds in fasted Long-Evans male rats, 2 hr food intake; format: in vivo; details: Rattus norvegicus; male Long Evans rats fasted 18-20 hr; 30 mg/kg (ip) in 2% tween; food given after 30 min, weighed 2 hr later; vs vehicle; read-out: inhibition of feeding (2 hr food intake)
Description: Protocol for IP Administration of Compounds in Fasted Long-Evans Male Rats
Male Long Evans rats (85-100 g)were obtained from Harlan (Indianapolis, Ind.) and were given at least a one week acclimation period to Ambients animal care facilities. Animals were individually housed and were provided ad libitum food and water. For testing, rats were fasted for 18-20 hr (overnight) prior to the start of the experiment. On the test day, test compounds or vehicle was administered via the intraperitoneal (i.p.) route of administration. Test compounds were suspended in a 2% tween solution; the 2% tween solution was used as the vehicle treatment (control group). Group sizes for each treatment were 6-8 animals. After 30 min, premeasured food was placed into the cages. Two hours later, the food was weighed again. The difference between 2 hr weight and the premeasured weight was taken as 2 hr food intake.

Row | SMILES | melting point [°C] | inhibition in vivo at 30 mg/kg [1] [%]
1 | Cc1nc(N2CCCCC2)c2[nH]c(-c3ccc(C)c(C)c3)cc2n1.Cl (hydrate or solvate) [Example 124, 6-(3,4-Dimethylphenyl)-2-methyl-4-piperidylpyrrolo[3,2-d]pyrimidine Hydrochloride Hydrate] | 198 to 201 | –
2 | Cc1nc(N2CCCCC2)c2[nH]c(-c3ccc4c(c3)OCCO4)cc2n1.Cl (hydrate or solvate) [Example 125, 6-(2-Methyl-4-piperidylpyrrolo[4,5-d]pyrimidin-6-yl)-2H,3H-benzo[e]1,4-dioxane Hydrochloride Monohydrate] | > 280 | –
3 | COc1ccc(-c2cc3nc(C)nc(N4CCCCC4)c3[nH]2)cc1OC.Cl (hydrate or solvate) [Example 126, 1,2-Dimethoxy-4-(2-methyl-4-piperidylpyrrolo[4,5-d]pyrimidin-6-yl)benzene Hydrochloride Hydrate] | 268 to 270 | –
4 | Cc1nc(N2CCCCC2)c2[nH]c(-c3ccc4c(c3)Cc3ccccc3-4)cc2n1.Cl (hydrate or solvate) [Example 127, 6-Fluoren-2-yl-2-methyl-4-piperidylpyrrolo[3,2-d]pyrimidine Hydrochloride Hydrate] | > 280 | –
5 | Cc1nc(N2CCCCC2)c2[nH]c(-c3ccc4c(c3)CCC4)cc2n1.Cl (hydrate or solvate) [Example 130, 6-Indan-5-yl-2-methyl-4-piperidylpyrrolo[3,2-d]pyrimidine Hydrochloride Monohydrate] | 164 to 167 | –
6 | Cc1nc(N2CCCCC2)c2[nH]c(-c3ccc4c(c3)CCO4)cc2n1.Cl (hydrate or solvate) [Example 131, 5-[2-Methyl-4-piperidylpyrrolo[4,5-d]pyrimidin-6-yl]-2,3-dihydrobenzo[b]furan Hydrochloride Hydrate] | 170 to 172 | –
7 | Cc1nc(N2CCCCC2)c2[nH]c(-c3ccc(F)cc3)c(C)c2n1.Cl (hydrate or solvate) [Example 134, 6-(4-Fluorophenyl)-2,7-dimethyl-4-piperidylpyrrolo[3,2-d]pyrimidine Hydrochloride Hydrate] | > 280 | –
8 | Cc1nc(N2CCCCC2)c2[nH]c(-c3ccc(O)cc3)c(C)c2n1.Cl (hydrate or solvate) [Example 137, 4-[2,7-Dimethyl-4-piperidylpyrrolo[4,5-d]pyrimidin-6-yl]phenol Hydrochloride Hydrate] | > 280 | –
9 | Cc1nc(N2CCCCC2)c2[nH]c(-c3ccc(S(C)(=O)=O)cc3)cc2n1.Cl (hydrate or solvate) [Example 142, 1-[2-Methyl-4-piperidylpyrrolo[4,5-d]pyrimidin-6-yl]-4-(methylsulfonyl)benzene Hydrochloride Monohydrate] | 279 to 281 | –
10 | Cc1nc(N2CCCCC2)c2[nH]c(-c3ccc4ccccc4c3)cc2n1.Cl (hydrate or solvate) [Example 160, 2-Methyl-6-(2-naphthyl)-4-piperidylpyrrolo[3,2-d]pyrimidine Hydrochloride Hydrate] | > 280 | –
11 | Cc1nc(N2CCCCC2)c2[nH]c(CCc3ccccc3)cc2n1.Cl (hydrate or solvate) [Example 168, 2-Methyl-6-(2-phenylethyl)-4-piperidylpyrrolo[3,2-d]pyrimidine Hydrochloride Hydrate] | 236 to 238 | –
12 | Cc1nc(N2CCCCCC2)c2[nH]c(-c3ccccc3)cc2n1 [Example 8, 4-Homopiperidyl-2-methyl-6-phenylpyrrolo[3,2-d]pyrimidine] | 209 to 210 | –
13 | Cc1nc(NCc2ccc(C)o2)c2[nH]c(-c3ccccc3)cc2n1 [Example 17] | 125 to 127.5 | –
14 | CC(C)c1nc(N2CCCCC2)c2[nH]c(-c3ccccc3)cc2n1 [Example 19d, 2-Isopropyl-6-phenyl-4-piperidylpyrrolo[3,2-d]pyrimidine] | 269.5 to 272 | –
15 | Cc1nc(N2CCNCC2)c2[nH]c(-c3ccccc3)cc2n1 [Example 26, 2-methyl-6-phenyl-4-piperazinylpyrrolo[3,2-d]pyrimidine] | 236 | –
16 | Cc1nc(NCc2ccccc2)c2[nH]c(-c3ccccc3)cc2n1 [Example 29, (2-Methyl-6-phenylpyrrolo[2,3-e]pyrimidin-4-yl)benyzlamine] | 275 to 276.5 | –
17 | Cc1nc(N2CCCCC2)c2c(cc(-c3ccccc3)n2C)n1 [Example 36, 2,5-Dimethyl-6-phenyl-4-piperidylpyrrolo[3,2-d]pyrimidine] | 131 to 132 | –
18 | c1ccc(-c2nc(N3CCCCC3)c3[nH]c(-c4ccccc4)cc3n2)cc1 [Example 45d, 2,6-Diphenyl-4-piperidylpyrrolo[3,2-d]pyrimidine] | 259 to 261.5 | –
19 | CC(=O)c1c(-c2ccccc2)[nH]c2c(N3CCCCC3)nc(C)nc12 [Example 49, 7-Acetyl-2-methyl-6-phenyl-4-piperidylpyrrolo[3,2-d]pyrimidine] | 188 to 190 | –

Row | SMILES | melting point [°C] | inhibition in vivo at 30 mg/kg [1] [%]
20 | Cc1nc(N2CCCCC2)c2[nH]c(-c3cccc(Cl)c3)cc2n1 [Example 70e, 6-(3-Chlorophenyl)-2-methyl-4-piperidylpyrrolo[3,2-d]pyrimidine Hydrochloride Monohydrate] | – | ≥ 10
21 | Cc1nc(N2CCCCC2)c2[nH]c(-c3ccccc3)c(C)c2n1 [Example 90, 2,7-Dimethyl-6-phenyl-4-piperidylpyrrolo[3,2-d]pyrimidine Hydrochloride Monohydrate] | – | ≥ 10
22 | Cc1nc(N2CCCCC2)c2[nH]c(-c3ccccc3F)cc2n1 [Example 102, 6-(2-Fluorophenyl)-2-methyl-4-piperidylpyrrolo[3,2-d]pyrimidine Hydrochloride Monohydrate] | – | ≥ 10
23 | Cc1nc(N2CCCCC2)c2[nH]c(C)cc2n1 [Example 104, 2,6-Dimethyl-4-piperidylpyrrolo[3,2-d]pyrimidine Hydrochloride Hydrate] | – | ≥ 10
24 | Cc1nc(N2CCCCC2)c2[nH]c(-c3cc(C(F)(F)F)cc(C(F)(F)F)c3)cc2n1.Cl [Example 122] | > 280 | –
25 | COc1ccc(-c2cc3nc(C)nc(N4CCCCC4)c3[nH]2)cc1OC [Example 126, 1,2-Dimethoxy-4-(2-methyl-4-piperidylpyrrolo[4,5-d]pyrimidin-6-yl)benzene Hydrochloride Hydrate] | – | ≥ 10
26 | Cc1nc(N2CCCCC2)c2[nH]c(-c3ccc4c(c3)Cc3ccccc3-4)cc2n1 [Example 127, 6-Fluoren-2-yl-2-methyl-4-piperidylpyrrolo[3,2-d]pyrimidine Hydrochloride Hydrate] | – | ≥ 10
27 | Cc1nc(N2CCCCC2)c2[nH]c(-c3ccc(F)cc3)c(C)c2n1 [Example 134, 6-(4-Fluorophenyl)-2,7-dimethyl-4-piperidylpyrrolo[3,2-d]pyrimidine Hydrochloride Hydrate] | – | ≥ 10
28 | Cc1nc(N2CCCCC2)c2[nH]c(-c3ccc(O)cc3)c(C)c2n1 [Example 137, 4-[2,7-Dimethyl-4-piperidylpyrrolo[4,5-d]pyrimidin-6-yl]phenol Hydrochloride Hydrate] | – | ≥ 10
29 | Cc1nc(N2CCOCC2)c2[nH]c(-c3ccc(F)c(F)c3)cc2n1 [Example 141, 4-[6-(3,4-Difluorophenyl)-2-methylpyrrolo[2,3-e]pyrimidin-4-yl]morpholine Hydrochloride] | – | ≥ 10
30 | Cc1nc(N2CCCCC2)c2[nH]c(-c3ccc(S(C)(=O)=O)cc3)cc2n1 [Example 142, 1-[2-Methyl-4-piperidylpyrrolo[4,5-d]pyrimidin-6-yl]-4-(methylsulfonyl)benzene Hydrochloride Monohydrate] | – | ≥ 10
31 | CCCCc1cc2nc(C)nc(N3CCCCC3)c2[nH]1 [Example 148, 6-Butyl-2-methyl-4-piperidylpyrrolo[3,2-d]pyrimidine Hydrochloride] | – | ≥ 10
32 | CC(=O)c1ccc(-c2cc3nc(C)nc(N4CCCCC4)c3[nH]2)cc1 [Example 150, 1-[4-(2-Methyl-4-piperidylpyrrolo[4,5-d]pyrimidin-6-yl)phenyl]ethan-1-one Hydrochloride Hydrate] | – | ≥ 10
33 | Cc1c(-c2ccccc2)n(C)c2c(N3CCCCC3)ncnc12 [Example 155, 5,7-Dimethyl-6-phenyl-4-piperidylpyrrolo[3,2-d]pyrimidine] | 123 to 125 | –
34 | Cc1nc(N2CCCCC2)c2[nH]c(-c3ccc4ccccc4c3)cc2n1 [Example 160, 2-Methyl-6-(2-naphthyl)-4-piperidylpyrrolo[3,2-d]pyrimidine Hydrochloride Hydrate] | – | ≥ 10
35 | Cc1nc(N2CCCCC2)c2[nH]c(CCc3ccccc3)cc2n1 [Example 168, 2-Methyl-6-(2-phenylethyl)-4-piperidylpyrrolo[3,2-d]pyrimidine Hydrochloride Hydrate] | – | ≥ 10
36 | Cc1nc(N2CCCCC2)c2[nH]c(-c3ccccc3)cc2[n+]1[O-] [Example 184, 2-Methyl-6-phenyl-4-piperidylpyrrolo[3,2-d]pyrimidin-1-ol] | 169 to 170 | –
37 | Cc1nc(N2CC=CC2)c2[nH]c(-c3ccc(Cl)c(Cl)c3)cc2n1 [Example 200d, 6-(3,4-Dichlorophenyl)-2-methyl-4-(3-pyrrolinyl)pyrrolo[3,2-d]pyrimidine Hydrochloride Hydrate] | – | ≥ 10
38 | CCc1nc(N2CCc3ccccc3C2)c2[nH]c(-c3ccccc3)cc2n1 [Example 202, 2-Ethyl-6-phenyl-4-(2-1,2,3,4-tetrahydroisoquinolyl)pyrrolo[3,2-d]pyrimidine Hydrochloride Monohydrate] | – | ≥ 10

Reference: patent US6583154B1, “Compounds and methods which modulate feeding behavior and related diseases” (Amgen Inc., priority 1998, dated 2003)
